Publication PMC9161444, “In-Membrane Nanostructuring of Cationic Amphiphiles Affects Their Antimicrobial Efficacy and Cytotoxicity: A Comparison Study between a De Novo Antimicrobial Lipopeptide and Traditional Biocides” (Langmuir, 2022)
Where “and” joins values, the source holds several entries; their conditions need not be identical. Equal values may be shown once. Read-outs that look alike come from different tables or passages of the source.

Columns and labels:
[1] = system: Human dermal fibroblasts cells (adult, HDFa cells); type: cell-based; conditions: MTT assay, 24 h exposure, 37 °C, absorbance 570 nm, sigmoidal fit; ± SD, at least three replicates; read-out: EC50, HDFa
Protocol: (§1) Human dermal fibroblasts cells (adult, HDFa cells) and NIH 3T3 fibroblasts cells (3T3 cells, ATCC-1658) were cultured at 37 °C in Dulbecco’s modified Eagle medium (ATCC30-2002, added with 10% heat-inactivated fetal bovine serum) with a continuous supply of CO2 at a 5% level. MTT assays were carried out to examine in vitro cytotoxicity of the amphiphiles.[22] Cells were first inoculated in flat-bottom 96-well plates, rendering 8 × 10^3 cells in 100 μL of medium for each well, and were incubated for 24 h. The cells were mixed with 100 μL of a solution of an amphiphile with 2 times the selected concentrations. Cells were then exposed to the solutions of each amphiphile for 24 h, after which 10 μL of 5 mg/mL MTT solution was added into each well, and the reaction was allowed for 2 h. 200 μL of dimethyl sulfoxide was then added to each well to dissolve the transformed MTT formazan. Light absorbance of the samples was measured using a Thermo Scientific Varioskan LUX at 570 nm. Cell samples 100% viable and 100% dead were employed as the positive control and negative control, respectively. Dose response curves were obtained by applying sigmoidal function fittings to obtain 50% effective concentrations (EC50).

[2] = system: NIH 3T3 fibroblasts cells (3T3 cells, ATCC-1658); type: cell-based; conditions: MTT assay, 24 h exposure, 37 °C, absorbance 570 nm, sigmoidal fit; ± SD, at least three replicates; read-out: EC50, NIH/3T3
Protocol: as §1

[3] = system: hRBCs; type: cell-based, human; conditions: hemolysis in PBS, 4% hRBC suspension mixed 1:1, 37 °C, 1 h, OD450, sigmoidal fit; ± SD, at least three replicates; read-out: EC50, hRBC (50% hemolysis)
Protocol: hRBCs were purchased from Rockland Immunochemical Inc. Hemolytic assays were performed in 96-well plates in an environment of PBS, as previously described.[13],[23] Amphiphiles were half diluted serially at first, resulting in 100 μL of solution in each well, and mixed subsequently with 100 μL of 4% hRBC suspension. Wells filled by PBS mixed with hRBC were employed as positive controls, while hRBCs with added 0.1% Triton X-100 were negative controls. After incubating at 37 °C for 1 h, the plates were centrifuged at 1000 times gravity for 5 min. The supernatants in each well, which contained the released hemoglobin, were transferred to another plate, and their optical density at 450 nm (OD450) was measured using an absorbance microplate reader. The percentage of hemolysis H for each sample at a certain concentration c was obtained by Hc = (OD450,c – OD450,positive control)/(OD450,negative control – OD450,positive control) × 100%. Figures for percentage leakage against concentration for each sample were plotted to determine the approximate range of 50% hemolysis, and the relevant concentration was the half maximal effective concentration (EC50) of the sample. Each experiment was repeated at least three times with each containing three replicates. The dose–response curves were again obtained by applying sigmoidal functional fits to obtain the EC50 values.

[4] = Fluorescein (CF) leakage from SUVs; conditions: for threshold concentration of fast leakage increase, PC/PG SUVs: end of the low leakage induction range; for concentration for 20% leakage, PC/Chol. vesicles / concentration for 20% leakage, PC/PG vesicles / concentration for 100% leakage, PC/Chol. vesicles / concentration for 100% leakage, PC/PG vesicles / concentration for minimal leakage, PC/Chol. vesicles / concentration for minimal leakage, PC/PG vesicles / EC50: CF-SUVs 0.25 mg/mL in TBS pH 7.2, fluorescence ex 480/em 520 nm, read from Figure 5
Protocol: Lipid SUVs with single or multiple components were used to model different biomembranes. In this work, two lipid mixtures with different surface charges were used to mimic bacterial inner membranes with the molar ratio of POPC/POPG of 7:3 and mammalian cytoplasmic cell membranes with a molar ratio of POPC/cholesterol of 1:1. Lipids (or cholesterol) were dissolved and mixed in chloroform, and then, the solvent was removed via evaporation and lyophilization. Dry lipids were dissolved in Tris buffered saline (TBS, containing 10 mM Tris-HCl and 154 mM NaCl, with a final pH of 7.2) and were fully dispersed via sonication. After five freeze/thaw loops of the lipid solution, SUVs were prepared by extruding 31 times using an Avanti Polar Lipids mini extruder. SUV solutions were diluted to 0.5 mg/ml for further use.
Concentration effects of the binding of amphiphiles to lipid SUVs were examined by means of fluorescein leakage. 5(6)-Carboxyfluorescein (CF)-entrapped SUVs (CF-SUVs) were prepared as described previously,[26] except that dried lipids were dissolved into 40 mM TBS solution of CF before the freeze/thaw loop. After extrusion, CF-SUVs were separated from unentrapped fluorescein molecules using a Sephadex G50 chromatography column. Amphiphile solutions of various concentrations were then blended in a 1:1 ratio with CF-SUVs, giving a mixture of amphiphiles of the desired concentration and CF-SUVs of concentration 0.25 mg/mL. A Thermo Scientific Varioskan LUX was employed to determine the amount of released CF in each sample by measuring their emission intensity I520, with an excitation wavelength of 480 nm and an emission wavelength of 520 nm. CF-SUVs alone and with added 0.2% Triton-X were measured as positive and negative controls (I+ and I–), respectively. The percentage of leakage L for each sample was calculated using Ln = (In,520 – I+)/(I– – I+) × 100%.

[5] = previous findings by Lu et al.; cited from earlier work
Text: From the best fitted surface tension parameters (listed in Table S2), the area per molecule (APM) could be calculated from eq 4 for each amphiphile at its respective CAC. […] This is in line with the previous findings by Lu et al., which stated that APMs of C10TAB, C12TAB, C14TAB, C16TAB, and C18TAB adsorbed on the surface of water were 55 ± 3, 50 ± 2, 48 ± 3, 43 ± 3, and 43 ± 3 Å^2, respectively.[29]−[33] Each lipopeptide molecule occupied around 79 ± 10 Å^2 at ...

[6] = read-out: concentration for 50% leakage, PC/Chol. vesicles
[7] = read-out: concentration for 50% leakage, PC/PG vesicles

| Structure (SMILES) | EC50 [1] [µM] | EC50 [2] [µM] | EC50 [3] [µM] | concentration above which fast leakage was induced, PC/chol SUVs ([4]; CF leakage, end of the low leakage induction period) [µM] | threshold concentration of fast leakage increase, PC/PG SUVs ([4]; CF leakage) [µM] | concentration for 20% leakage, PC/Chol. vesicles [4] [µM] | concentration for 20% leakage, PC/PG vesicles [4] [µM] | concentration for 100% leakage, PC/Chol. vesicles [4] [µM] | concentration for 100% leakage, PC/PG vesicles [4] | concentration for minimal leakage, PC/Chol. vesicles [4] | concentration for minimal leakage, PC/PG vesicles [4] | EC50 [4, 6] [µM] | EC50 [4, 7] [µM] | leakage, PC/PG SUVs ([4]; at 256 μM) [%] | leakage, PC/PG SUVs ([4]; from 16 to 75 μM) | APM adsorbed on the surface of water [5] [Å^2] | maximum leakage, PC/chol SUVs ([4]; at 100 μM and above) [%] |
| --- | --- | --- | --- | --- | --- | --- | --- | --- | --- | --- | --- | --- | --- | --- | --- | --- | --- |
| CCCCCCCCCCCC[N+](C)(C)C.[Br-] [C12TAB, dodecyltrimethylammonium bromide] | 17 ± 5 | 12 ± 4 | 610 ± 30 | ~70 | 75 | 500 | 125 | >2000 | above 1000 μM and 1000 μM | 10 µM | around 16 μM and 75 μM | 2000 | 256 | 60 | less than 10% | 50 ± 2 | – |
| CCCCCCCCCCCCCC[N+](C)(C)C.[Br-] [C14TAB, tetradecyltrimethylammonium bromide] | 7 ± 3 | 3 ± 1 | 98 ± 8 | – | 16 | 10 | 30 | >500 | 500 µM | around 4 μM | 4 µM | 100 | 50 | – | – | 48 ± 3 | 50 |
